Laboratory results taken from ChEMBL document CHEMBL2074462, “MRP4: A previously unidentified factor in resistance to nucleoside-based antiviral drugs” (Nat Med, 1999).

Target: T1, ATP-binding cassette sub-family C member 4 (Homo sapiens, UniProt O15439)
T1 sequence (O15439 whole entry): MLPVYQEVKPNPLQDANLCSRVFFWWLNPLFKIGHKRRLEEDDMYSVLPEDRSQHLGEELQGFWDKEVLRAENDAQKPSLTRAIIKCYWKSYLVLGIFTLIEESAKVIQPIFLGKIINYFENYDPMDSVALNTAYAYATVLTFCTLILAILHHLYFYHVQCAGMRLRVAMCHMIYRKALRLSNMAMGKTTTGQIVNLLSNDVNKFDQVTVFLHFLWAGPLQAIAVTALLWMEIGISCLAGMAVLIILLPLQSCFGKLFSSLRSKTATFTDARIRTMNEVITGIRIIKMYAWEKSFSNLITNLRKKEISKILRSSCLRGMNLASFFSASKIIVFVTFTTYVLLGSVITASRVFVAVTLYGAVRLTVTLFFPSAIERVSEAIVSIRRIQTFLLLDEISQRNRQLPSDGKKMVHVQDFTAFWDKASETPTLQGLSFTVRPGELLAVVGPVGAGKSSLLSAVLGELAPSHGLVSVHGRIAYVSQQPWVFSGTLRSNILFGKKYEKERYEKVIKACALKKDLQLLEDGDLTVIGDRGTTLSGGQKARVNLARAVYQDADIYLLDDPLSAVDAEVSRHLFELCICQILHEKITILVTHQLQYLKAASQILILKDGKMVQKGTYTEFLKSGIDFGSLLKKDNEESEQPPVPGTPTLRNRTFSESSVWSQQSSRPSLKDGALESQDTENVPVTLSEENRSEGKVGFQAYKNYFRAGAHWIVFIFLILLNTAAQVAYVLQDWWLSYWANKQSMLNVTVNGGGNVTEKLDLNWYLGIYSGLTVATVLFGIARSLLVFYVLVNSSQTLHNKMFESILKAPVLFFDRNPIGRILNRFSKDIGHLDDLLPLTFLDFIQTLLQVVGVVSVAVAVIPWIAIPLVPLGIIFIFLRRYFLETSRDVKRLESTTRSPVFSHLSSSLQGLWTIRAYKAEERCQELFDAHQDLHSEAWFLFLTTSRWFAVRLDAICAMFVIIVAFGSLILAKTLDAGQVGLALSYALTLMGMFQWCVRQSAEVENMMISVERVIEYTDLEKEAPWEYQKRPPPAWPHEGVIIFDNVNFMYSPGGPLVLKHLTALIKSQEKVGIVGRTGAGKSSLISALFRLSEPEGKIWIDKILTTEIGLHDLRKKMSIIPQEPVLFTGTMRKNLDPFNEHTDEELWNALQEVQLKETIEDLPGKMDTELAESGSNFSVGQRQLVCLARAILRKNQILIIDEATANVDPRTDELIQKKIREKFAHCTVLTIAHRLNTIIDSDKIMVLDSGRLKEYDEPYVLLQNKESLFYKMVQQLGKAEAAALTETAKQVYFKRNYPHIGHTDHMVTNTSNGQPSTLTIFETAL
Assay: TP_TRANSPORTER: efflux in CEM-r1 cells
Assay type: functional, cell-based

| SMILES | Activity |
| --- | --- |
| Nc1ncnc2c1ncn2CCOCP(=O)(O)O [ADEFOVIR] | substrate [+] |
| Cc1cn([C@H]2C[C@H](N=[N+]=[N-])[C@@H](COP(=O)(O)O)O2)c(=O)[nH]c1=O [AZIDOTHYMIDINE MONOPHOSPHATE] | substrate [+] |
